Target: T1, Wrightia tinctoria 11S globulin (WTG) (Wrightia tinctoria, UniProt A0A162EGL7)
T1 construct: native purification from seeds; signal peptide (first 26 residues) removed; cleaved at Asn284-Gly285 into acidic and basic subunits joined by disulphide Cys120-Cys291; 18 C-terminal residues not seen; homohexamer
Assay: X-ray crystal structure of complex ([…] Å); co-purified ligand identified by MALDI-MS and HRMS
Format: binding
Settings: naturally bound ligand; three pockets at interface of four chains between two trimers; two alternate orientations, 0.5 occupancy; crystals at pH 8.5

T1 sequence (A0A162EGL7 entry or part of it): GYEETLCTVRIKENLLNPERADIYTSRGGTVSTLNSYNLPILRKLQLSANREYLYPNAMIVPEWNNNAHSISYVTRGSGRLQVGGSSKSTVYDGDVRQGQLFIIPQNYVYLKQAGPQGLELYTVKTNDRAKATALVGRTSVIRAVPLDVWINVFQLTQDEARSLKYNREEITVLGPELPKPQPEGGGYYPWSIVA
T1 sequence (A0A162EGL7 entry or part of it): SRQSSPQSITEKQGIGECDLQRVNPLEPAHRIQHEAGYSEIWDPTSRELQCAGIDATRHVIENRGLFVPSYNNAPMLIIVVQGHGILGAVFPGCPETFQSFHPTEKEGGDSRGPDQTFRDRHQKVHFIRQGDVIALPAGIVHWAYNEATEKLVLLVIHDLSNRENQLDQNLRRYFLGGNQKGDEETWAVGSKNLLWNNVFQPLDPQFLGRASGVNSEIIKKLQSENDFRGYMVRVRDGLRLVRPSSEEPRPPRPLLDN

## O=C(O)Cc1c[nH]c2ccccc12 [Indole-3-acetic acid]
  X-ray crystal structure of complex (1.7 Å); co-purified ligand identified by MAL: clearly revealed the presence of an IAA molecule in alternate orientation at the hydrophobic site
